This note sets out measurements from patent US7880007B2, “Bicyclic substituted phenyl piperidine modulators of muscarinic receptors” (Vertex Pharmaceuticals Incorporated, priority 2004, dated 2011).

For orientation: Emax means the greatest response seen or fitted, relative to the assay's reference.

Holding throughout (assay type): cell-based
The target in one assay is T1, M2 muscarinic receptor (Homo sapiens, UniProt P08172).
T1 construct: expressed in transfected cells; host or cells: CHO (M2-CHO)
T1 sequence (P08172 1-466): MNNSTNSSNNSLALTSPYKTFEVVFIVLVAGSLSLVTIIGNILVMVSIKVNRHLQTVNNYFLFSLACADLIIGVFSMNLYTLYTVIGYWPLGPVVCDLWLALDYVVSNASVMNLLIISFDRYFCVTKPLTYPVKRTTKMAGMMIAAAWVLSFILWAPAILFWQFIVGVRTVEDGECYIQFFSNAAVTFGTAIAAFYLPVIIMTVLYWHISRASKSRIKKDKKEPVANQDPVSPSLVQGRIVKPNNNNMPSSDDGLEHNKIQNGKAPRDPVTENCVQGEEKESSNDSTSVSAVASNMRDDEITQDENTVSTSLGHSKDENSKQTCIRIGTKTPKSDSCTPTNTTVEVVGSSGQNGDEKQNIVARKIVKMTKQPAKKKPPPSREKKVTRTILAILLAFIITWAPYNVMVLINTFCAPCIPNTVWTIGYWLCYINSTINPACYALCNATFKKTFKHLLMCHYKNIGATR
In words: Functional mobilization of intracellular calcium (FLIPR), M2-CHO cells. The settings on record: for M2 Activity: M2-CHO cells, calcium mobilization (FLIPR). Summed up: (§1)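 Calcium mobilisation read by FLIPR over 60 s (ex 488/em 540 nm) in recombinant muscarinic CHO lines loaded with calcium dye plus 1 mM probenecid. Compounds tested as agonists alone, or as inhibitors against EC80 carbachol after 15 min pre-incubation or co-addition; 0.5% DMSO; efficacy scaled to carbachol maximal response.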

In the next assay the target is T2, M1 muscarinic receptor (Homo sapiens, UniProt P11229).
T2 construct: expressed in transfected cells; host or cells: CHO (M1-CHO)
T2 sequence (P11229 1-460): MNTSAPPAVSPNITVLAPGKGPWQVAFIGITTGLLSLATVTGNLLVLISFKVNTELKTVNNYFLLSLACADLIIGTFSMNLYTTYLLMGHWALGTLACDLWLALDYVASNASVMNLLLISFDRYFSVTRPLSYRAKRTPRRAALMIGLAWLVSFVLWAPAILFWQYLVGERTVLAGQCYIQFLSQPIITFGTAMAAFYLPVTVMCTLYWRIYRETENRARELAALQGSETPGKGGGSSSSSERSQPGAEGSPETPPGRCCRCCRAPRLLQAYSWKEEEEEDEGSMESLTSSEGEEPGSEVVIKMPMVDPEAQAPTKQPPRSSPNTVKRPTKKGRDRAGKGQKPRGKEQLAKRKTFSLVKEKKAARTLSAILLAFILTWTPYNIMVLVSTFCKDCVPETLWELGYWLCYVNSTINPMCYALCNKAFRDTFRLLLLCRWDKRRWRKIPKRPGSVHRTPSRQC
As to the kind of experiment: Functional mobilization of intracellular calcium (FLIPR), M1-CHO cells. The settings on record: for M1 Activity: M1-CHO cells, calcium mobilization (FLIPR). In outline: as §1

Another assay has as its target T3, M4 muscarinic receptor (Homo sapiens, UniProt P08173).
T3 construct: expressed in transfected cells; host or cells: CHO (M4-CHO)
T3 sequence (P08173 1-479): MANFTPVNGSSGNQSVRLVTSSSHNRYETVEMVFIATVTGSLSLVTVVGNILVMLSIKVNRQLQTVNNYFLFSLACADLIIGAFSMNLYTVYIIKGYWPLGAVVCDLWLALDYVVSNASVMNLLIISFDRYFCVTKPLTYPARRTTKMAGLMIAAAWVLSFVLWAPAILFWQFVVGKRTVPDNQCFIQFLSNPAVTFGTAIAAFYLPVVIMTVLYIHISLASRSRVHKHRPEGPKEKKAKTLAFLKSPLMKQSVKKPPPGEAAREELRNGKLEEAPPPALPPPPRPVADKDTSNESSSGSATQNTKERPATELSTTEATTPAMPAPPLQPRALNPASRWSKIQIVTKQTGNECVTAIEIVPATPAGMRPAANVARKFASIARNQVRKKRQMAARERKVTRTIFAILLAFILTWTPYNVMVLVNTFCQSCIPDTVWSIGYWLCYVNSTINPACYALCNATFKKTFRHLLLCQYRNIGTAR
As to the kind of experiment: Functional mobilization of intracellular calcium (FLIPR), M4-CHO cells. The settings on record: for M4 Activity: M4-CHO cells, calcium mobilization (FLIPR). Summed up: as §1
On the technique in general: Calcium flux is commonly read through the fluorescence of an indicator in the cells.

Another assay addresses T4, M3 muscarinic receptor (Homo sapiens, UniProt P20309).
T4 construct: expressed in transfected cells; host or cells: CHO (M3-CHO)
In words: Functional mobilization of intracellular calcium (FLIPR), M3-CHO cells. The settings on record: for M3 Activity: M3-CHO cells, calcium mobilization (FLIPR). On the procedure:
Functional Mobilization of Intracellular Calcium to Determine Muscarinic Receptor Activity:
CHO cells expressing muscarinic receptors (M1 to M5) are grown as monolayers in tissue culture flasks at 37° C. in a humidified atmosphere containing 5% CO2 and passaged every 3-5 days. The growth media is Dulbecco's modified eagles medium (DMEM, Gibco Cat #12430-054), containing 25 mM Hepes and supplemented with Fetal Bovine Serum (Hyclone, cat #SH30071.03), 0.1 mM of MEM non-essential amino acids (GIBCO, Cat #11140-050), 1 mM MEM Sodium Pyruvate (GIBCO Cat #11360-070) and 100 units/ml of Penicillin G and 100 μg/ml of Streptomycin (GIBCO Cat #15140-122). The recombinant muscarinic receptor cell lines are grown under antibiotic pressure with media containing 25 μg/ml zeocin and 500 μg/ml G418 (M1-CHO), 4 μg/ml puromycin, 50 μg/ml zeocin and 2.5 μg/ml blasticidin (M2 and M4-CHO) or 50 μg/ml zeocin and 4 μg/ml puromycin (M3 and M5-CHO).
Cells are harvested at 80-90% confluence using Versene (GIBCO Cat #15040-066), collected by centrifugation and seeded 18-24 hrs prior to running the calcium assay at a density of 5,000-10,000 cells/well in […], clear-bottomed 384-well plates (BD Biocoat, poly-D-lysine, Cat #356663). The day of the experiment, the cells are washed with a plate washer (Bioteck Instruments, ELX 405) using bath 1 buffer (140-mM NaCl, 4.5-mM KCl, 2-mM CaCl2, 1-mM MgCl2, 10-mM Hepes-Na, 10-mM Glucose, pH 7.4, with NaOH) containing 1 mM Probenecid. Next, the calcium dye Fluo-3 (25 μl/well of Fluo-3 AM at 4 μM, Molecular Probes F-1241, in Bath 1 buffer containing 1 mM Probenecid) is added to the 25 μl of Bath 1 remaining in each well after the plate wash and the dye is loaded at 37° C. in the tissue culture incubator for 60-90 min. The fluorescent dye is removed using the plate washer with Bath 1 containing 1 mM Probenecid, leaving 25 μl/well of this solution after the wash. Alternatively, cells can be loaded with the calcium indicator from Molecular Devices (Calcium 3 Assay Reagents, Cat #R7181) adding 5 μl of a 5× solution dye in Bath 1 containing 1 mM Probenecid (10 ml per dye flask cat #R7182 to generate a solution 20×) to 20 μl of the same buffer. After loading for 60 min, the experiment can be run without having to remove the dye.
Compounds are prepared at a 2× fold concentration in a 96-well plate (round bottom, Costar Corning cat #3656), by reconstituting the pre-spotted compounds in bath 1 containing 1 mM probenecid. The final concentration DMSO is 0.5%, and the amount of DMSO is normalized across the assay plate. To determine an agonist action of the compounds on muscarinic receptors, the reconstituted compounds are added (25 μl compound/well) to the cell assay plate (containing 25 μl/well) using the multi-channel robotic system of the FLIPR 3 Instrument (Molecular Devices, Sunnyvale, Calif.). To determine a functional inhibitory action of the compounds on muscarinic receptors, the reconstituted compounds are added (25 μl compound/well) to the assay plate and pre-incubated for 15 min prior to adding 25 μl of Carbachol at 3× the EC80 for each muscarinic subtype. Alternatively, the compounds can be co-applied simultaneously with the agonist. In both assay modes, the fluorescence is recorded for 60 sec (excitation wavelength is […] and emission wavelength 540 nm) using the FLIPR 3 instrument.
The potency, efficacy and selectivity of the muscarinic compounds were evaluated by screening the compound activity across the whole family (M1 to M5 cells). Compounds were also screened for activity on other proteins such as other GPCRs and ion channels to determine selectivity on M4 receptors.
Examples of activities and efficacies of the muscarinic compounds of formulae (I, Ia, Ib, and II) on modulating M1, M2, M3 and M4 receptors are shown below in Table 3. […]

Setting [1] is: 100% efficacy = maximum response obtained with the Carbachol control.
Where [2] appears, read: 100% efficacy is the maximum response obtained with the Carbachol control.

T4 sequence (P20309 whole entry): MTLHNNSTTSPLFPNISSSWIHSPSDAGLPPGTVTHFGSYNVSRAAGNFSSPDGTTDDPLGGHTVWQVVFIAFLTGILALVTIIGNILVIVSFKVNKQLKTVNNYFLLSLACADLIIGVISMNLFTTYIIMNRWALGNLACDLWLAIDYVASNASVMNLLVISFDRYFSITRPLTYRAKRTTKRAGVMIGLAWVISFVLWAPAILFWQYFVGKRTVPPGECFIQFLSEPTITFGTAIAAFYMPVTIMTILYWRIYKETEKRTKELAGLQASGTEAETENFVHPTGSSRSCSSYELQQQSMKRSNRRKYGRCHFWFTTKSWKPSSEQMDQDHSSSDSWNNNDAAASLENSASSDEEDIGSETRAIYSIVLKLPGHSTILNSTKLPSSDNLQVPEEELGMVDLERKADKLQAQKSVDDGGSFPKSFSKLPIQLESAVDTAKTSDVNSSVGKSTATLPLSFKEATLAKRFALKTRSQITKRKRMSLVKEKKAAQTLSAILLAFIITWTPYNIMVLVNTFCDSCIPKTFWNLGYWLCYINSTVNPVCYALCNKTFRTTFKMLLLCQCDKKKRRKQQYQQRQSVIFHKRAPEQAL

In the case of `COc1ccc(Cl)cc1C1(F)CCN(CC2CC3CCC2C3)CC1` (stereo not drawn) [Compound 326], the Emax on M2 muscarinic receptor (setting [1]) was 25 to 100%; at M1 muscarinic receptor (setting [1]), 25 to 100%; at M4 muscarinic receptor (setting [1]), 25 to 100%; at M3 muscarinic receptor (setting [1]) it was less than 25%. The “M2 Activity” value on M2 muscarinic receptor was “+ (activity was measured to be greater than 5.0 μM)”. For the same molecule, on M1 muscarinic receptor, the “M1 Activity” value is on record as “+ (activity was measured to be greater than 5.0 μM)”. Further, the “M4 Activity” value at M4 muscarinic receptor is “++ (activity was measured to be from 1.0 μM to 5.0 μM)”. Moreover, the “M3 Activity” value on M3 muscarinic receptor is given as “+ (activity was measured to be greater than 5.0 μM)”.
As for `COc1ccc(F)cc1C1(OC)CCN(C[C@H]2C[C@H]3C=C[C@H]2C3)CC1` [Compound 292], the Emax is 25 to 100% on M2 muscarinic receptor (setting [1]), 25 to 100% at M1 muscarinic receptor (setting [1]), 25 to 100% on M4 muscarinic receptor (setting [1]) and less than 25% at M3 muscarinic receptor (setting [1]). Further, at M2 muscarinic receptor, the “M2 Activity” value is given as “++ (activity was measured to be from 1.0 μM to 5.0 μM)”. Besides, the “M1 Activity” value on M1 muscarinic receptor is on record as “++ (activity was measured to be from 1.0 μM to 5.0 μM)”. In addition, at M4 muscarinic receptor, the “M4 Activity” value is listed as “+++ (activity was measured to be less than 1.0 μM)”. The “M3 Activity” value on M3 muscarinic receptor is “+ (activity was measured to be greater than 5.0 μM)”.
For the molecule `COc1cc(F)c(F)c(C2CCN(C3CC4CCC(C4)C3)CC2)c1` (stereo not drawn) [Compound 310], the Emax on M2 muscarinic receptor (setting [1]) is less than 25%; at M1 muscarinic receptor (setting [1]) it was less than 25%; at M4 muscarinic receptor (setting [1]), 25 to 100%; at M3 muscarinic receptor (setting [1]), less than 25%. Further, on M2 muscarinic receptor, the “M2 Activity” value is on record as “+ (activity was measured to be greater than 5.0 μM)”. Also, on M1 muscarinic receptor, the “M1 Activity” value is “+ (activity was measured to be greater than 5.0 μM)”. For the same molecule, the “M4 Activity” value at M4 muscarinic receptor is “+++ (activity was measured to be less than 1.0 μM)”. The “M3 Activity” value at M3 muscarinic receptor is given as “+ (activity was measured to be greater than 5.0 μM)”.
For the molecule `Cc1ccc(C(=O)COc2ccccc2C2CCN([C@H]3C[C@H]4CC[C@H]3C4)CC2)cc1` [Compound 188], the Emax was 25 to 100% on M2 muscarinic receptor (setting [1]), 25 to 100% at M1 muscarinic receptor (setting [1]), 25 to 100% on M4 muscarinic receptor (setting [1]) and less than 25% at M3 muscarinic receptor (setting [1]). Further, the “M2 Activity” value at M2 muscarinic receptor is given as “+ (activity was measured to be greater than 5.0 μM)”. Besides, the “M1 Activity” value at M1 muscarinic receptor is “+ (activity was measured to be greater than 5.0 μM)”. The “M4 Activity” value on M4 muscarinic receptor was “++ (activity was measured to be from 1.0 μM to 5.0 μM)”. Besides, the “M3 Activity” value on M3 muscarinic receptor is on record as “+ (activity was measured to be greater than 5.0 μM)”.
With `O=C(COc1ccccc1C1CCN([C@H]2C[C@H]3CC[C@H]2C3)CC1)c1ccc(F)cc1` [Compound 12], the Emax was 25 to 100% on M2 muscarinic receptor (setting [1]), less than 25% on M1 muscarinic receptor (setting [1]), 25 to 100% on M4 muscarinic receptor (setting [1]) and less than 25% at M3 muscarinic receptor (setting [1]). Also, the “M2 Activity” value on M2 muscarinic receptor is listed as “+ (activity was measured to be greater than 5.0 μM)”. Moreover, the “M1 Activity” value on M1 muscarinic receptor was “+ (activity was measured to be greater than 5.0 μM)”. Besides, the “M4 Activity” value on M4 muscarinic receptor was “++ (activity was measured to be from 1.0 μM to 5.0 μM)”. Also, the “M3 Activity” value at M3 muscarinic receptor is given as “+ (activity was measured to be greater than 5.0 μM)”.
As to `Cc1ccc(F)cc1C1CCN(CC2C[C@H]3CC[C@H]2C3)CC1` (stereo partly drawn) [Compound 424], the Emax on M2 muscarinic receptor (setting [2]) was 25 to 100%; at M1 muscarinic receptor (setting [2]), 25 to 100%; at M4 muscarinic receptor (setting [2]), 25 to 100%; at M3 muscarinic receptor (setting [2]), less than 25%. In addition, the “M2 Activity” value on M2 muscarinic receptor was “++ (activity was measured to be from 1.0 μM to 5.0 μM)”. Further, at M1 muscarinic receptor, the “M1 Activity” value is on record as “++ (activity was measured to be from 1.0 μM to 5.0 μM)”. Also, the “M4 Activity” value at M4 muscarinic receptor is “+++ (activity was measured to be less than 1.0 μM)”. Moreover, the “M3 Activity” value at M3 muscarinic receptor is reported as “+ (activity was measured to be greater than 5.0 μM)”.
In the case of `COc1ccc(Cl)cc1C1(OC)CCN(C2CCCCC2)CC1` [Compound 203], the Emax at M2 muscarinic receptor (setting [1]) is less than 25%; on M1 muscarinic receptor (setting [1]), 25 to 100%; on M4 muscarinic receptor (setting [1]), 25 to 100%. The “M2 Activity” value at M2 muscarinic receptor is recorded as “+ (activity was measured to be greater than 5.0 μM)”. Moreover, the “M1 Activity” value on M1 muscarinic receptor is “+ (activity was measured to be greater than 5.0 μM)”. Moreover, the “M4 Activity” value on M4 muscarinic receptor was “++ (activity was measured to be from 1.0 μM to 5.0 μM)”.
